According to patent US11311522B1 (Cavion, Inc., priority 2018, dated 2022):

Assay: PN002/Part II: safety and tolerability
Type: in vivo
Text: Clinical safety was monitored throughout the study by adverse events, clinical laboratory tests, vital signs, ECGs, and ECG telemetry.
The subject was not on telemetry at the time.

Compound: CC(C)c1ccc(CC(=O)N[C@H](C)c2ccc(OCC(F)(F)F)cn2)cc1 [CX-8998]
- Abnormal physical sensation (2 mg/d): 0 n %
- Abnormal sensation of limbs (2 mg/d): 0 n %
- Anger (2 mg/d): 0 n %
- Application site erythema (2 mg/d): 0 n %
- Application site pruritus (2 mg/d): 0 n %
- At least 1 adverse event (2 mg/d): 4 (66.7) n %
- Backache (2 mg/d): 0 n %
- Clamminess (2 mg/d): 0 n %
- Daydreaming (2 mg/d): 0 n %
- Disorientation (2 mg/d): 1 (16.7) n %
- Dizziness (2 mg/d): 0 n %
- Drowsiness (2 mg/d): 0 n %
- Dyspepsia (2 mg/d): 0 n %
- Euphoric mood (2 mg/d): 0 n %
- Eye Disorders (2 mg/d): 0 n %
- Feeling drunk (2 mg/d): 0 n %
- Feeling of relaxation (2 mg/d): 0 n %
- Floating feeling (2 mg/d): 0 n %
- Fuzzy head (2 mg/d): 0 n %
- Gastrointestinal Disorders (2 mg/d): 2 (33.3) n %
- Hallucination (2 mg/d): 0 n %
- Headache (2 mg/d): 1 (16.7) n %
- Heaviness of head (2 mg/d): 0 n %
- Hyperactivity (2 mg/d): 0 n %
- Hypoaesthesia mouth (2 mg/d): 0 n %
- Increased state of alertness (2 mg/d): 0 n %
- Intermittent headache (2 mg/d): 0 n %
- Lethargy (2 mg/d): 0 n %
- Lightheadedness (2 mg/d): 0 n %
- Mood altered (2 mg/d): 0 n %
- Mood change (2 mg/d): 0 n %
- Musculoskeletal and Connective Tissue Disorders (2 mg/d): 2 (33.3) n %
- Nausea (2 mg/d): 2 (33.3) n %
- Nervous System Disorders (2 mg/d): 1 (16.7) n %
- Paraesthesia generalized (2 mg/d): 0 n %
- Paranoia (2 mg/d): 0 n %
- Psychiatric Disorders (2 mg/d): 1 (16.7) n %
- Respiratory, Thoracic and Mediastinal Disorders (2 mg/d): 1 (16.7) n %
- Sedation (2 mg/d): 0 n %
- Sensation of heaviness (2 mg/d): 0 n %
- Sensation of pressure (2 mg/d): 0 n %
- Skin and Subcutaneous Tissue Disorders (2 mg/d): 0 n %
- Sleep difficult (2 mg/d): 0 n %
- Sleep disturbance (2 mg/d): 0 n %
- Somnolence (2 mg/d): 0 n %
- Sore throat (2 mg/d): 1 (16.7) n %
- Spaced out (2 mg/d): 0 n %
- Syncope (2 mg/d): 1 (16.7) n %
- Taste change (2 mg/d): 0 n %
- Temporal disorientation (2 mg/d): 0 n %
- Tingling (2 mg/d): 1 (16.7) n %
- Tiredness (2 mg/d): 1 (16.7) n %
- Visual disturbance (2 mg/d): 0 n %
- Vivid dreams (2 mg/d): 0 n %
- Vomiting (2 mg/d): 1 (16.7) n %
- Abnormal physical sensation (4 mg/d): 0 n %
- Abnormal sensation of limbs (4 mg/d): 0 n %
- Anger (4 mg/d): 0 n %
- Application site erythema (4 mg/d): 0 n %
- Application site pruritus (4 mg/d): 0 n %
- At least 1 adverse event (4 mg/d): 5 (83.3) n %
- Backache (4 mg/d): 0 n %
- Clamminess (4 mg/d): 0 n %
- Daydreaming (4 mg/d): 0 n %
- Disorientation (4 mg/d): 0 n %
- Dizziness (4 mg/d): 0 n %
- Drowsiness (4 mg/d): 2 (33.3) n %
- Dyspepsia (4 mg/d): 0 n %
- Euphoric mood (4 mg/d): 1 (16.7) n %
- Eye Disorders (4 mg/d): 1 (16.7) n %
- Feeling drunk (4 mg/d): 0 n %
- Feeling of relaxation (4 mg/d): 4 (66.7) n %
- Floating feeling (4 mg/d): 1 (16.7) n %
- Fuzzy head (4 mg/d): 1 (16.7) n %
- Gastrointestinal Disorders (4 mg/d): 1 (16.7) n %
- Hallucination (4 mg/d): 0 n %
- Headache (4 mg/d): 3 (50.0) n %
- Heaviness of head (4 mg/d): 0 n %
- Hyperactivity (4 mg/d): 0 n %
- Hypoaesthesia mouth (4 mg/d): 0 n %
- Increased state of alertness (4 mg/d): 1 (16.7) n %
- Intermittent headache (4 mg/d): 1 (16.7) n %
- Lethargy (4 mg/d): 1 (16.7) n %
- Lightheadedness (4 mg/d): 4 (66.7) n %
- Mood altered (4 mg/d): 0 n %
- Mood change (4 mg/d): 0 n %
- Musculoskeletal and Connective Tissue Disorders (4 mg/d): 0 n %
- Nausea (4 mg/d): 0 n %
- Nervous System Disorders (4 mg/d): 5 (83.3) n %
- Paraesthesia generalized (4 mg/d): 0 n %
- Paranoia (4 mg/d): 0 n %
- Psychiatric Disorders (4 mg/d): 3 (50.0) n %
- Respiratory, Thoracic and Mediastinal Disorders (4 mg/d): 0 n %
- Sedation (4 mg/d): 0 n %
- Sensation of heaviness (4 mg/d): 0 n %
- Sensation of pressure (4 mg/d): 0 n %
- Skin and Subcutaneous Tissue Disorders (4 mg/d): 1 (16.7) n %
- Sleep difficult (4 mg/d): 0 n %
- Sleep disturbance (4 mg/d): 1 (16.7) n %
- Somnolence (4 mg/d): 1 (16.7) n %
- Sore throat (4 mg/d): 0 n %
- Spaced out (4 mg/d): 0 n %
- Syncope (4 mg/d): 0 n %
- Taste change (4 mg/d): 0 n %
- Temporal disorientation (4 mg/d): 0 n %
- Tingling (4 mg/d): 0 n %
- Tiredness (4 mg/d): 2 (33.3) n %
- Visual disturbance (4 mg/d): 1 (16.7) n %
- Vivid dreams (4 mg/d): 2 (33.3) n %
- Vomiting (4 mg/d): 0 n %
- Abnormal physical sensation (8 mg/d): 0 n %
- Abnormal sensation of limbs (8 mg/d): 0 n %
- Anger (8 mg/d): 0 n %
- Application site erythema (8 mg/d): 3 (50.0) n %
- Application site pruritus (8 mg/d): 1 (16.7) n %
- At least 1 adverse event (8 mg/d): 6 (100) n %
- Backache (8 mg/d): 0 n %
- Clamminess (8 mg/d): 1 (16.7) n %
- Daydreaming (8 mg/d): 1 (16.7) n %
- Disorientation (8 mg/d): 0 n %
- Dizziness (8 mg/d): 0 n %
- Drowsiness (8 mg/d): 1 (16.7) n %
- Dyspepsia (8 mg/d): 2 (33.3) n %
- Euphoric mood (8 mg/d): 2 (33.3) n %
- Eye Disorders (8 mg/d): 2 (33.3) n %
- Feeling drunk (8 mg/d): 0 n %
- Feeling of relaxation (8 mg/d): 1 (16.7) n %
- Floating feeling (8 mg/d): 2 (33.3) n %
- Fuzzy head (8 mg/d): 1 (16.7) n %
- Gastrointestinal Disorders (8 mg/d): 3 (50.0) n %
- Hallucination (8 mg/d): 0 n %
- Headache (8 mg/d): 5 (83.3) n %
- Heaviness of head (8 mg/d): 0 n %
- Hyperactivity (8 mg/d): 2 (33.3) n %
- Hypoaesthesia mouth (8 mg/d): 0 n %
- Increased state of alertness (8 mg/d): 1 (16.7) n %
- Intermittent headache (8 mg/d): 1 (16.7) n %
- Lethargy (8 mg/d): 1 (16.7) n %
- Lightheadedness (8 mg/d): 4 (66.7) n %
- Mood altered (8 mg/d): 1 (16.7) n %
- Mood change (8 mg/d): 2 (33.3) n %
- Musculoskeletal and Connective Tissue Disorders (8 mg/d): 1 (16.7) n %
- Nausea (8 mg/d): 1 (16.7) n %
- Nervous System Disorders (8 mg/d): 6 (100) n %
- Paraesthesia generalized (8 mg/d): 1 (16.7) n %
- Paranoia (8 mg/d): 0 n %
- Psychiatric Disorders (8 mg/d): 3 (50.0) n %
- Respiratory, Thoracic and Mediastinal Disorders (8 mg/d): 3 (50.0) n %
- Sedation (8 mg/d): 2 (33.3) n %
- Sensation of heaviness (8 mg/d): 1 (16.7) n %
- Sensation of pressure (8 mg/d): 2 (33.3) n %
- Skin and Subcutaneous Tissue Disorders (8 mg/d): 1 (16.7) n %
- Sleep difficult (8 mg/d): 0 n %
- Sleep disturbance (8 mg/d): 0 n %
- Somnolence (8 mg/d): 2 (33.3) n %
- Sore throat (8 mg/d): 1 (16.7) n %
- Spaced out (8 mg/d): 1 (16.7) n %
- Syncope (8 mg/d): 0 n %
- Taste change (8 mg/d): 1 (16.7) n %
- Temporal disorientation (8 mg/d): 2 (33.3) n %
- Tingling (8 mg/d): 1 (16.7) n %
- Tiredness (8 mg/d): 3 (50.0) n %
- Visual disturbance (8 mg/d): 1 (16.7) n %
- Vivid dreams (8 mg/d): 2 (33.3) n %
- Vomiting (8 mg/d): 1 (16.7) n %
- Abnormal physical sensation (12 mg/d): 0 n %
